This is an account of results in patent US9526707B2, “Methods for treating or preventing neuroinflammation or autoimmune diseases” (priority 2007, dated 2016).

“Also recorded” adds a separate entry of the source. Counter-ions that a name gives are not always drawn.

Data set [1] relates to Experimental Autoimmune Encephalomyelitis (EAE) in C57BL/6 mice. Briefly: Experimental Autoimmune Encephalomyelitis (EAE) model, treatment started two days prior to MOG booster. The data set is classed as in vivo, mouse. The settings on record: for effect on EAE clinical symptoms (in words): treated versus control animals, FIG. 1, 3, 4, 5. The source says:
(§1) One method of showing the efficacy of the disclosed compounds for the treatment of various conditions associated with multiple sclerosis (MS) is its ability to inhibit effects of Experimental Autoimmune Encephalomyelitis (EAE) in laboratory animals. EAE is an animal model for MS, which entails inducing a T-cell-mediated autoimmune disease against myelin basic protein in certain susceptible mammalian species. The EAE model is an appropriate method for studying the inflammation of the brain and spinal cord associated with MS (see Bolton, C. Mult. Scler. 1995; 1(3); 143-9). […] The symptoms that are observed in animals vary from mild gait disturbances and tail atony to complete paralysis and death. These clinical manifestations are given a clinical score ranging from 0 to 5. In the present situation, the scores were based on the following criteria: clinical score 0, no signs; 1.0 limp tail; 2.0 limptail with loss of righting; 3.0 paralysis of single hind limb; 4.0 paralysis of both hind limbs; 5.0 death. Weight loss typically occurs. In animals that survive, spontaneous recovery occurs, accompanied by variable recovery of most motor function. Depending on the species, allergen, and methodology used, animals tested by the EAE model may experience a single (acute EAE) or several (chronic relapsing EAE) attacks.
Experimental autoimmune encephalomyelitis was induced in C57BL/6 mice using the following protocol. Female C57BL/6 mice (6-8 weeks old, N=24) purchased from Jackson Labs, were allowed to acclimate for one week prior to EAE induction. EAE was induced using myelin oligodendrocyte glycoprotein peptide 35-55 (MOG35-55, MEVGWYRSPFSRVVHL-YRNGK). The MOG35-55 injection with Freund's adjuvant was administered subcutaneously adjacent to the hind leg. At the same time, the animals received an injection of pertussis toxin (200 ng in 200 μL phosphate buffered saline (PBS), intraperitoneally), and a second pertussis toxin injection two days later. Mice were given a booster injection of MOG35-55 at day No. 7. Two or three days after the second MOG booster injection, some animals begin to show signs of EAE. The mice are monitored daily using the clinical scoring system described above.
In addition, Didox delayed the onset of the disease in the minority of animals in which it occurred in the Didox treatment group, 7.3 days versus 4.4 days for the control group. […] For example, at the plateau of the clinical condition on day 12 for both the Didox and saline (control) group, represented by the open squares ? the mean clinical score was only 0.45 for the Didox treated cohort compared to a score of 1.9 for the control group. […]

For data set [2] the test system is unchanged. Briefly: EAE model, treatment started at day 16 after MOG booster (established symptoms). The data set is classed as in vivo, mouse. The settings on record: 250 mg/kg intraperitoneally, started 16 days after MOG35-55 booster.
Source text: as §1, with “attacks. […]” for “attacks.”

Another data set deals with EAE mice. The data set can be described thus: EAE model, treatment started when mice had reached clinical stage 2 or more (clinical score). The note with it: treatment begun at clinical stage 2 or more. The data set is classed as in vivo, mouse.
Another data set concerns mouse cytokines in serum. The data set can be described thus: Serum cytokine levels in EAE mice, BioPlex multiplexable bead assay. The data set is classed as in vivo. The protocol: The effect of Didox on cytokine levels was tested. As before, two groups were assembled, one treated with Didox while the other group served as a control and only received saline injections. […] EAE was initiated in all animals depicted at the same time and in an identical manner. All animals were of the same experimental time point at the time of serum collection for cytokine analysis. The Didox treated group experienced a decrease of two points in the EAE clinical score. The analysis of cytokine levels was performed by utilizing a BioPlex® multiplexable bead assay method that simultaneously quantitates mouse cytokines in diverse matrices. In this example the assay was carried out on serum derived from mice of the two groups (Didox and saline treated) at day 12 post MOG induced EAE. Blood was obtained by cardiac aspiration from mice that had been euthanized by CO2. Serum was obtained from clotted blood after centrifugation and stored at […] until assayed. For analysis the serum was diluted and analyzed with the Bio-Plex® assay system. The system utilized beads that are internally labeled with two fluorescent dyes (one for identification of the bead and one for covalent attachment of ligands (or biomolecules). Once an antibody was conjugated to the bead a sample of serum was added and followed by a reporter antibody that is often biotinylated. Following incubation with biotinylated reporter antibody, strepavidin/phycoerythrin was added to make detection possible. The system can profile up to 23 mouse cytokines. Table B indicates the amount of cytokine present (pg/mL) in the serum.

Data set [3] relates to T-cells in splenocytes from C57BL/6 mice. The data set can be described thus: T-cell proliferation of CD3/CD28 stimulated splenocytes (BrdU). The data set is classed as cell-based, mouse. The note with it: 48 hours with compound, b156: at 100 μM. The protocol: A series of in vitro experiments were conducted to ascertain the effect of Didox on immune function. A mixed splenocyte preparation was divided into two portions, one was stimulated with CD3 and CD28 to specifically activate T-cells while the other served as a control. The splenocytes were isolated from female C57BL/6 mice (6-8 weeks old) and the splenocytes were incubated for 24 hours with CD3/CD28 coated wells, after which Didox was added at varying concentrations. The cells were then incubated for an additional 48 hours. Each well was labeled with BrdU for the last 24 hours and the wells analyzed according to the manufacturer's instructions (Roche-Cell Proliferation Chemiluminescent assay kit). FIG. 7 depicts the results of these experiments. The solid black bars represent un-stimulated splenocytes while the white bars the effect of varying concentrations of Didox on the amount of T-Cells present.

In the next data set the test system is activated T-cells. The data set can be described thus: Secretion of inflammatory cytokines by activated T-Cells in vitro. Format: cell-based. From the text: The purpose of this example was to determine whether Didox treatment of T-Cells in vitro produced similar data as was found in vivo using the EAE model.
Data set [4] relates to activated microglia isolated from rat brain. The data set can be described thus: Nitrite production by LPS-activated microglia. The data set is classed as cell-based. From the text:
To further evaluate the beneficial effect of Didox on brain tissue, we analyzed the ability of Didox to attenuate the production of nitrite by activated microglia, which are major contributors to the inflammatory status of EAE mice. Microglia were isolated from rat brain and activated with lipopolysaccharide (LPS) in the presence or absence of increasing concentrations of Didox. […] This observation, together with the attenuation of the T-cell inflammatory response would both contribute to the biological activity of Didox to reduce the severity of EAE.

Setting [5] is: clinical score 0 to 5, treated from day -2 before MOG booster.
Setting [6] is: serum, treated versus saline treated EAE mice.
[7] abbreviates: 48 hours treatment of activated T-cells, even at 5 μM.

On to `NC(=NO)c1ccc(O)c(O)c1` (as salt: hydrochloride) [Example I, 3,4-dihydroxybenzamidoxime], for which the melting point (usually the temperature, or range, at which the solid turns liquid) was 193 °C (dec.).
With `O=C(NO)c1ccc(O)c(O)c1` [Didox, N,3,4-trihydroxybenzamide], in data set [1] (setting [5]), the “Max. Score” value stood at 3 and the “Max. Score (mean +/− SEM)” value is listed as 0.45 +/− 0.31. In addition, in data set [1] (control 78%), the “percentage of animals that exhibited any clinical symptom of the disease” value worked out at 27%. In data set [1] (day 12, plateau of the clinical condition, control 1.9), this compound displayed a mean clinical score of 0.45. For the same compound, the “onset of the disease” value in data set [1] (in the minority of animals in which it occurred, control 4.4 days) is 7.3 days. The “Day of Disease Onset” value in data set [1] (treated from day -2 before MOG booster) is listed as 7.33 +/− 1.73. Further, the “effect on EAE clinical symptoms (in words)” value in data set [1] was “reduced the severity and delayed the onset of the clinical manifestation of the disease”. In addition, the “reduction in average clinical score” value in data set [2] was “more than 50%”. The “decrease in the EAE clinical score” value with EAE mice was “two”. This compound also had an IL-4 in serum in the data set on mouse cytokines in serum (day 12 post MOG induced EAE, control 0 ± 0) of 0 ± 0 pg/mL. This compound also yielded an IL-2 in serum in the data set on mouse cytokines in serum (day 12 post MOG induced EAE, control 2 ± 2) of 0.7 ± 0.2 pg/mL. In the data set with mouse cytokines in serum (day 12 post MOG induced EAE, control 6 ± 5), the IL-5 in serum is on record as 2 ± 1 pg/mL. The same compound yielded a GM-CSF in serum in the data set with mouse cytokines in serum (day 12 post MOG induced EAE, control 7 ± 4) of 0.4 ± 0.5 pg/mL. The compound also yielded an IFN-g in serum in the data set on mouse cytokines in serum (day 12 post MOG induced EAE, control 10 ± 3) of 3 ± 1 pg/mL. Further, in the data set with mouse cytokines in serum (day 12 post MOG induced EAE, control 16 ± 7), the IL-10 in serum is on record as 3 ± 1 pg/mL. Further, in the data set on mouse cytokines in serum (day 12 post MOG induced EAE, control 83 ± 29), the IL-17 in serum came to 2 ± 0.2 pg/mL. The TNF-α in serum in the data set on mouse cytokines in serum (day 12 post MOG induced EAE, control 219 ± 132) came to 61 ± 46 pg/mL. In the data set on mouse cytokines in serum (day 12 post MOG induced EAE, control 559 ± 276), this compound returned an IL-12 in serum of 36 ± 14 pg/mL. In the data set on mouse cytokines in serum (setting [6]), the “reduction for IL-12” value was 15 fold, the “reduction for Il-10” value is 5.0 fold, the “reduction for TNF levels” value was determined as 3.5 fold and the “reduction in IL-17” value is reported as “approximately 35 fold”. In addition, the “level of T-Cell proliferation” value in data set [3] is recorded as “reduces the level of T-cells to the amount present in un-stimulated cells; also recorded: reduced to that for un-stimulated cells”. Further, in the data set on activated T-cells (24 hours treatment), the “secretion of IFNγ” value is recorded as “does not reduce the levels of these cytokines to background; also recorded: reduced to less than half the level secreted by the untreated activated T-cells” and the “secretion of IL-17” value was “does not reduce the levels of these cytokines to background”. Moreover, in the data set on activated T-cells (setting [7]), the “secretion of IFNγ” value is “down to baseline levels” and the “secretion of IL-17” value was “down to baseline levels”. Moreover, the nitrite production entry in data set [4] (100 μM treatment) is recorded as “reached base line levels”. Moreover, in data set [4] (increasing concentrations), the “nitrite production, dose dependence” value is given as “dose dependent attenuation of nitrite production”.
For the compound `NC(=O)NO` [hydroxyurea, reference compound], the “effect on EAE clinical symptoms (in words)” value in data set [1] is on record as “did not show evidence of treating neurodegenerative diseases”.
